Assays:
MC3T3-E1 cells = assay: Cell proliferation rate by BrdU incorporation; type: cell-based, murine; details: vs RGD-tethered surfaces at low and high peptide surface densities
Method: Cells were seeded on surfaces in 10% serum for 16 h, and BrdU (3.1 μg/ml) was added for the last 4 h. After washing with DPBS, samples were fixed in 70% cold ethanol for 10 min, denatured in 4 M HC1 for 20 min, neutralized in 50 mM NaCl in 100 mM Tris-HCI (pH 7.4), washed, and blocked with 5% FBS+1% heat-denatured BSA. Cultures were incubated in anti-BrdU antibody (1:1000) and AlexaFluor488-conjugated anti-mouse IgG (1:200). Nuclei were counter-stained with Hoechst dye (1:10,000). Fluorescent images were used to quantify the number of cells positive for BrdU relative to total cell nuclei using an in-house image analysis routine. Ten representative fields were analyzed per well with multiple wells for each surface condition.

FAK = FAK phosphorylation Western blotting on ligand-tethered SAMs; type: cell-based, murine
Method: Cells were detached and gently agitated in serum-free suspension for 45 min to reduce background. Cells were then seeded at 200 cells/mm^2 serum-free for 1 h. Cells were lysed in RIPA buffer (1% Triton X-100, 1% sodium deoxycholate, 0.1% SDS, 150 mM NaCl, 150 mM Tris-HCl (pH 7.2), 350 μg/ml PMSF, 10 μg/ml leupeptin, and 10 μg/ml aprotonin) for 20 min on ice. Samples were pipetted up and down 20 times and centrifuged at 8000 g for 10 min to shear DNA and isolate protein contents. Total protein was quantified using micro-BCA (Pierce). Equal amounts of protein were boiled for 10 min in Laemmli buffer and separated by SDS-PAGE on a 7% gel, transferred to nitrocellulose membranes, and blocked with Blotto (5% nonfat dry milk, 0.20% Tween-20) overnight at 4° C. Membranes were gently rocked in antibodies against FAK and specific phosphorylated FAK tyrosine residues (anti-total FAK at 1 μg/ml, anti-FAK pY397 at 0.35 μg/ml, anti-FAK pY576 at 0.5 μg/ml) for 1 h. After washing with TBS-Tween (20 mM Tris HCl pH 7.6, 137 mM NaCl, 0.1% Tween-20), secondary antibody (biotin-conjugated anti-rabbit IgG; 1:20,000) was added for 1 h, followed by alkaline phosphatase-conjugated anti-biotin antibody (1:10,000) in Blotto. Immunoreactivity was assessed by ECF fluorescent substrate. FAK bands were visualized by a Fuji Image Analyzer and phosphorylation levels normalized to total FAK.

[1] = system: HFN7.1 monoclonal antibody; assay: ELISA with HFN7.1 monoclonal antibody; type: binding; details: passively adsorbed ligands, various coating concentrations
Method: An ELISA was used to probe for the biological activity of the FNIII7-10 fragment compared to pFN. FNIII7-10 or pFN was adsorbed onto either uncoated or Neutravidin-coated (100 μg/ml) 96-well black U-well Dynex plates at various concentrations for 30 min. Following incubation in blocking buffer (0.25% BSA, 0.1 M EDTA, 2.5% Tween-20, 0.00125% NaN3), HFN7.1 antibody (0.6 μg/ml in blocking buffer) was added for 1 h at 37° C., and, after washing with blocking buffer, surfaces were incubated in alkaline phosphatase-conjugated anti-mouse IgG (0.6 μg/ml) for 1 h at 37° C. Washed surfaces were exposed to 4-methylumbelliferyl phosphate (25 mg/ml in 10 mM diethanolamine, pH 9.5). The resulting fluorescence was quantified using an HTS 7000 Plus plate reader (Perkin Elmer, Foster City, Calif.) at 360 nm excitation and 465 nm emission.

[2] = system: rat femur segmental defect; assay: 8 mm segmental defect in the rat femur, micro-CT bone formation; type: in vivo; details: coated PCL scaffolds (20 μg/ml) vs PCL and empty defects; 4 and 12 weeks
Method: The ability of GFOGER peptide (SEQ ID NO:1)-coated polymeric scaffolds to heal critical sized defects was examined. […] A 8 mm segmental defect in the rat femur was used to evaluate bone repair. Three experimental groups were evaluated: (i) empty defect controls, (ii) PCL scaffolds, and (iii) GFOGER peptide (SEQ ID NO:1)-coated PCL scaffolds. Polycaprolactone (PCL) is a clinically used polymer widely used in orthopaedic and soft tissue applications. Scaffolds were passively coated with GFOGER peptide (SEQ ID NO:1) (20 μg/ml) as described above. Bone formation was assessed non-invasively via micro-computed tomography (micro-CT) at 4 and 12 weeks. […] No differences in bone formation were observed between PCL and empty defects.

[3] = system: bone marrow stromal cells; assay: Calcium incorporation (matrix mineralization) assay; type: cell-based, rat; details: 14 days in culture; vs untreated titanium
Method: Primary bone marrow stromal cells were harvested from the femora of young adult male Wistar rats in accordance with an IACUC-approved protocol. After excision, hindleg femora and tibiae were cleared of soft tissue and rinsed in growth medium (α-minimal essential medium supplemented with 10% fetal bovine serum, 1% penicillin-streptomycin, and 0.3 μg/ml amphotericin B). The ends of the long bones were then removed and the marrow space was flushed with culture medium (3-5 ml), using a syringe with an 18-gauge needle. Marrow isolates were pooled, centrifuged, resuspended in growth medium, and seeded for adhesion-dependent selection on tissue culture polystyrene dishes. Non-adherent hematopoietic cells were removed during subsequent medium exchanges, which occurred every other day. Cells were subcultured every two days according to standard techniques. For in vitro osteogenic assays, cells were seeded at 10,000 cells/cm^2 in growth medium. After 24 h, cultures were maintained in osteogenic medium consisting of growth medium supplemented with 50 μg/ml L-ascorbic acid and 3 mM sodium β-glycerophosphate.
Calcium content was determined by dissolving mineralized deposits with 1 N acetic acid overnight. […] The absorbance of the resulting samples was measured at 650 nm and compared to a linear standard curve of CaCl2 in 1 N acetic acid.

Row | Substance | cell proliferation rate (BrdU incorporation) (MC3T3-E1 cells) | FAK tyrosine-861 phosphorylation (FAK; among both peptide-tethered surfaces) | FAK tyrosine-397 phosphorylation (FAK; maximum peptide densities, vs RGD-tethered surface) | FAK tyrosine-576 phosphorylation (FAK; vs RGD-functionalized support) | HFN7.1 binding (biological activity) [1] | bone formation (micro-CT) [2] | calcium-based mineral deposition [3]
1 | FNIII7-10: monobiotinylated recombinant fibronectin fragment spanning the 7-10th type III repeats of fibronectin; α5β1 integrin ligand | two-fold increase | phosphorylated at similar levels | increased almost threefold | significantly higher | equivalent functional activity | – | –
2 | GGYGGGPC(GPP)5GFOGER(GPP)5GPC [GFOGER peptide] | – | – | – | – | – | enhancement in bone formation | three-fold enhancement

Source: US8445006B2, “Biomolecular coating for implants” (Georgia Tech Research Corporation, priority 2006, dated 2013)
